Assay results: ChEMBL document CHEMBL1201862, “PubChem BioAssay data set” (2004)
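Cultured in 96-well plates, cells were exposed to test compound for 48 hours across five concentrations. GI50: concentration for 50% inhibition of growth.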 The source made the active and inactive calls. Cut-off read from the data, not from the text of the source: active = GI50 up to about 1.1 µM and inactive = higher.

Key:
Assay in all cases: NCI anticancer screen, dose series, 48 h
A549 = tested on: A549
HOP-62 = tested on: HOP-62
ACHN = tested on: ACHN
SNB-19 = tested on: SNB-19
HOP-92 = tested on: HOP-92
OVCAR-4 = tested on: OVCAR-4
CAKI-1 = tested on: CAKI-1
MDA-N = tested on: MDA-N
A498 = tested on: A498
M14 = tested on: M14
EKVX = tested on: EKVX
K562 = tested on: K562
Hs-578T = tested on: Hs-578T
SF-295 = tested on: SF-295
HL-60 = tested on: HL-60
KM12 = tested on: KM12
MOLT-4 = tested on: MOLT-4
MCF7 = tested on: MCF7
OVCAR-5 = tested on: OVCAR-5

Measured: GI50

O=C1C=CC2(O[C@H](c3ccccc3)[C@@H](c3ccccc3)O2)[C@H](Sc2ccccc2O)C1
inactive: A549 2.73 µM | HOP-62 1.85 µM | SNB-19 1.72 µM | A498 2.24 µM | EKVX 1.43 µM | SF-295 6.43 µM | KM12 1.98 µM | OVCAR-5 2.35 µM
active: ACHN 0.351 µM | HOP-92 0.52 µM | OVCAR-4 1.08 µM | CAKI-1 0.34 µM | MDA-N 0.316 µM | M14 0.233 µM | K562 0.405 µM | Hs-578T 0.836 µM | HL-60 0.264 µM | MOLT-4 0.0286 µM | MCF7 0.27 µM

COc1ccc(OC)c2nc3c(C(=O)NCCN(C)C)cccc3nc12
inactive: A549 3.37 µM | HOP-62 4.55 µM | ACHN 1.98 µM | SNB-19 6.76 µM | HOP-92 4.18 µM | OVCAR-4 3.09 µM | CAKI-1 3.22 µM | MDA-N 4.52 µM | A498 13.9 µM | M14 4.69 µM | EKVX 6.58 µM | K562 3 µM | Hs-578T 5.89 µM | SF-295 3.99 µM | HL-60 3.18 µM | KM12 4.2 µM | MOLT-4 2.8 µM | MCF7 3.48 µM | OVCAR-5 10.3 µM

O=C(CC(=O)Nc1ccccc1)NNC(c1cc(/N=N/c2ccc(Br)cc2)ccc1O)P(O)O (stereo unspecified)
active: M14 0.631 µM | HL-60 0.291 µM | MOLT-4 0.321 µM | MCF7 1.03 µM
inactive: A549 6.41 µM | HOP-62 6.79 µM | ACHN 2.12 µM | SNB-19 > 10 µM | HOP-92 4.18 µM | OVCAR-4 1.85 µM | CAKI-1 3.02 µM | MDA-N 3.83 µM | A498 2.43 µM | K562 2.06 µM | Hs-578T > 10 µM | SF-295 3.64 µM | KM12 1.81 µM | OVCAR-5 6.92 µM

COC1(C(C)(C)C)C=C(C(C)(C)C)P(=O)(O)O1 (stereo unspecified)
inactive: A549 > 100 µM | HOP-62 > 100 µM | ACHN > 100 µM | SNB-19 > 100 µM | HOP-92 > 100 µM | OVCAR-4 > 100 µM | CAKI-1 > 100 µM | MDA-N > 100 µM | A498 > 100 µM | M14 > 100 µM | EKVX > 100 µM | K562 > 100 µM | Hs-578T > 100 µM | SF-295 > 100 µM | HL-60 > 100 µM | KM12 > 100 µM | MCF7 > 100 µM | OVCAR-5 > 100 µM

O=C(Cn1c(=O)oc2ccc(C(=O)c3ccc(F)cc3)cc21)c1ccccc1
inactive: A549 55.8 µM | HOP-62 > 100 µM | ACHN > 100 µM | SNB-19 > 100 µM | HOP-92 > 100 µM | OVCAR-4 > 100 µM | CAKI-1 > 100 µM | MDA-N > 100 µM | A498 21 µM | M14 > 100 µM | K562 > 100 µM | Hs-578T > 100 µM | HL-60 > 100 µM | KM12 > 100 µM | MOLT-4 42.4 µM | MCF7 > 100 µM | OVCAR-5 > 100 µM

O=c1c(F)cn(Cc2c(Cl)cccc2Cl)c(=O)n1Cc1c(Cl)cccc1Cl
inactive: A549 > 31.6 µM | HOP-62 > 31.6 µM | ACHN > 31.6 µM | SNB-19 > 100 µM | HOP-92 20.3 µM | OVCAR-4 17.1 µM | CAKI-1 > 21.5 µM | MDA-N > 31.6 µM | A498 > 31.6 µM | M14 > 31.6 µM | EKVX 21.4 µM | K562 26.9 µM | Hs-578T > 31.6 µM | SF-295 > 31.6 µM | HL-60 20 µM | KM12 > 31.6 µM | MOLT-4 25.6 µM | MCF7 24.5 µM | OVCAR-5 > 31.6 µM

CCCCCCCCCCCC(=O)NCc1ccc(OC(=O)CCCCCCCCCCC)c(OC)c1
inactive: A549 > 100 µM | HOP-62 > 100 µM | ACHN > 100 µM | SNB-19 > 100 µM | HOP-92 > 100 µM | OVCAR-4 34.2 µM | CAKI-1 > 100 µM | MDA-N 61.4 µM | A498 > 100 µM | M14 32.7 µM | EKVX > 100 µM | K562 > 83 µM | Hs-578T 56.4 µM | SF-295 > 66.4 µM | HL-60 6.07 µM | KM12 24.3 µM | MOLT-4 2.75 µM | MCF7 35.3 µM | OVCAR-5 > 100 µM

CN(C)c1ccc(/C=C(\NC(=O)c2ccccc2)C(=O)NC(Cc2c[nH]c3ccccc23)C(=O)O)cc1 (stereo unspecified)
inactive: A549 > 100 µM | HOP-62 34.4 µM | ACHN > 100 µM | SNB-19 > 100 µM | HOP-92 > 100 µM | OVCAR-4 > 100 µM | CAKI-1 > 100 µM | MDA-N > 100 µM | A498 > 100 µM | M14 > 100 µM | EKVX > 100 µM | K562 > 100 µM | Hs-578T > 100 µM | SF-295 > 100 µM | HL-60 > 100 µM | KM12 > 100 µM | MOLT-4 > 100 µM | MCF7 > 100 µM | OVCAR-5 > 100 µM

Cn1c(=O)oc2cc(Br)ccc21
inactive: A549 > 100 µM | HOP-62 > 100 µM | ACHN > 100 µM | SNB-19 > 100 µM | OVCAR-4 > 100 µM | CAKI-1 > 100 µM | MDA-N > 100 µM | A498 > 100 µM | M14 > 100 µM | EKVX 91.4 µM | K562 > 100 µM | Hs-578T > 100 µM | SF-295 > 100 µM | HL-60 > 100 µM | KM12 > 100 µM | MOLT-4 > 100 µM | MCF7 > 100 µM | OVCAR-5 > 100 µM

C1CSC2=C(S1)SC1=C(S2)SC(=C2SC3=C(SC4=C(SCCS4)S3)S2)S1
inactive: A549 > 100 µM | HOP-62 > 100 µM | ACHN > 100 µM | SNB-19 > 100 µM | HOP-92 > 100 µM | OVCAR-4 > 100 µM | CAKI-1 > 100 µM | MDA-N > 100 µM | A498 > 100 µM | M14 > 100 µM | EKVX > 100 µM | K562 > 100 µM | Hs-578T > 100 µM | SF-295 > 100 µM | HL-60 23.9 µM | KM12 > 100 µM | MOLT-4 > 100 µM | MCF7 > 100 µM | OVCAR-5 > 100 µM

Cc1ccc(S(=O)(=O)CNC(=O)C(O)(O)C(F)(F)F)cc1
inactive: A549 > 100 µM | HOP-62 > 100 µM | SNB-19 > 100 µM | HOP-92 > 100 µM | OVCAR-4 > 100 µM | CAKI-1 > 100 µM | MDA-N > 100 µM | A498 > 100 µM | M14 > 100 µM | EKVX > 100 µM | K562 > 100 µM | Hs-578T > 100 µM | SF-295 > 100 µM | HL-60 > 100 µM | KM12 > 100 µM | MOLT-4 > 100 µM | MCF7 > 100 µM | OVCAR-5 > 100 µM

O=c1[nH]cnc2c1ncn2[C@@H]1C[C@H]1CO
inactive: A549 > 100 µM | HOP-62 > 100 µM | ACHN > 100 µM | SNB-19 > 100 µM | HOP-92 > 100 µM | OVCAR-4 > 100 µM | CAKI-1 > 100 µM | MDA-N > 100 µM | A498 > 100 µM | M14 > 100 µM | EKVX > 100 µM | K562 > 100 µM | Hs-578T > 100 µM | HL-60 > 100 µM | KM12 > 100 µM | MOLT-4 > 100 µM | MCF7 > 100 µM | OVCAR-5 > 100 µM

O=[N+]([O-])c1ccc2c3c1[C@@H]1O[C@@H]1c1cccc(c1-3)[C@@H]1O[C@H]21
inactive: A549 6.76 µM | HOP-62 10.2 µM | ACHN 1.94 µM | SNB-19 14.6 µM | HOP-92 9.46 µM | OVCAR-4 3.35 µM | CAKI-1 1.61 µM | MDA-N 3.04 µM | A498 3.23 µM | M14 3.24 µM | EKVX 6.35 µM | K562 4.2 µM | Hs-578T 3.1 µM | SF-295 11 µM | HL-60 3.1 µM | KM12 2.72 µM | MOLT-4 4.69 µM | MCF7 3.55 µM | OVCAR-5 13.6 µM

C[C@@H](NC(C#N)c1ccco1)c1ccccc1 (stereo partly specified)
inactive: A549 > 100 µM | HOP-62 > 100 µM | ACHN > 100 µM | SNB-19 > 100 µM | HOP-92 30.4 µM | MDA-N > 100 µM | A498 > 100 µM | M14 > 100 µM | EKVX > 100 µM | K562 > 100 µM | Hs-578T > 100 µM | SF-295 > 100 µM | HL-60 > 100 µM | KM12 > 100 µM | MOLT-4 > 100 µM | MCF7 > 100 µM | OVCAR-5 > 100 µM

Nc1ccc2c(c1)Cc1ccccc1-2
inactive: A549 65 µM | HOP-62 60 µM | ACHN 95.1 µM | SNB-19 > 100 µM | HOP-92 28.9 µM | OVCAR-4 > 100 µM | CAKI-1 88.3 µM | MDA-N > 100 µM | A498 49 µM | M14 > 100 µM | EKVX 37.1 µM | K562 84.1 µM | Hs-578T > 100 µM | SF-295 > 100 µM | HL-60 36.6 µM | KM12 41.5 µM | MOLT-4 34.7 µM | MCF7 > 100 µM | OVCAR-5 > 100 µM
